Laboratory results taken from US4162325A, “N-substituted lactams” (UCB, Societe Anonyme, priority 1976, dated 1979).
Several values for one entry are separate records, joined by “and”; a condition that tells them apart may be missing. Equal entries are not always repeated.

Assays:
mice = assay: protection against aggressions of the hypoxic type (lethality induced by oxydipentonium chloride) in mice; assay type: in vivo; conditions: ip, 1 h, mouse, intraperitoneal, one hour before curarizer, read-out: Proportion of survivors, treated animals
Protocol: Protection against aggressions of the hypoxic type is shown by a reduction of the lethality induced by a curarizer, the duration of action of which is short, namely oxydipentonium chloride (Brevatonal). At the doses used, this curarizer brings about a respiratory depression which, in turn, brings about a hypoxi-hypercapnic syndrome. A compound capable of protecting the brain during this brief period of hypoxia ensures survival. The compounds are administered to groups of 10 mice one hour before the injection of the curarizer; in a parallel test, a control group of 10 mice are given physiological salt solution before the curarizer. This test has also been developed in our laboratories (see, for the principle of this test, S. LEVIS et al.; Arch. Int. Pharmacodyn. Therap, 93,(1953),1,46-54).
Intraperitoneal administration of compounds of general formula (I), namely, products A, B, F, G, H, I, J, K, L, gives the results shown in Table III: […]

rats = assay: active avoidance test, memory retention (paw pressure withdrawal) in rats; assay type: in vivo, rat; conditions: Rattus norvegicus, sc, 24 h, read-out: Active dose (minimum dose which reduces the stimulus to below 11 graduations)
From the text: (A) The action on mnemic processes is first shown by the ability of the compounds to improve a type of memory retention in rats. The principle of the active avoidance test (see M. GREINDL and S. PREAT, Arch. Int. Pharmacodyn. Therap. 223,(1976),(1),168-171) developed in our laboratories and used for this purpose may be described as follows: the reaction of withdrawal of a rat's paw when subjected to an increasing and measured pressure is observed. The pressure at which the withdrawal reaction takes place is called the reaction threshold. This threshold is expressed by the number of graduations of the scale of the apparatus used (Analgesy meter UGO BASILE - Milano) and thus corresponds to the minimum pressure which brings about withdrawal when applied to the animal's paw. It is read directly from the scale of the apparatus used.
Inversely, animals treated with a substance having a positive effect on the mnemic processes (for example, piracetam) show a significant degree of retention: the stimulus at which the rats react by a reflex of avoidance is statistically lower than that of the control animals. A minimum of 20 rats are used per test (10 treated rats and 10 control rats) and the active dose is defined as the minimum dose which reduces the stimulus to below 11 graduations.
Subcutaneous administration of compounds of general formula (I), namely compounds A, G, H, I, J, K, L, N, O, P, Q, R, V, W, give, under these conditions, the effects indicated in Table I below.

rat = conditions: 30 mg/kg (0.2 mM/kg), Giurgea et al., loc.cit.; cited from earlier work

NC(=O)CN1CCCC1=O [Piracetam, 2-oxo-1-pyrrolidineacetamide, reference compound]
responders at 320 µM, 45 mg/kg (mice; 0.32 mM/kg (A 64, I 95, J 68, Piracetam 45 mg/kg), control 1/10, Piracetam 0/10): 10%
responders at 1000 µM, 142 mg/kg (mice; 1.0 mM/kg (Piracetam 142 mg/kg), control 2/10): 40%
responders at 3200 µM, 454 mg/kg (mice; 3.2 mM/kg (Piracetam 454 mg/kg), control 1/10): 80%
minimal effective dose (rats): 3.5 mg/kg and 25 µmol/kg
Number of animals which responded positively / number tested (rat): 4/9
